From ChEMBL document CHEMBL1137339, “Improved therapeutic efficacy of doxorubicin through conjugation with a novel peptide drug delivery technology (Vectocell)” (J Med Chem, 2006)
Non-standard residues stand in square brackets, D forms with d. Residues, ends and D or L forms follow the SMILES beside them. ξ: configuration not given here. *: point of attachment. X1 = COc1cccc2c1C(=O)c1c(O)c3c(c(O)c1C2=O)C[C@@](O)(C(=O)COC(=O)CCCN1C(=O)CC(*)C1=O)C[C@@H]3O[C@H]1C[C@H](N)[C@H](O)[C@H](C)O1; X4 = COc1cccc2c1C(=O)c1c(O)c3c(c(O)c1C2=O)C[C@@](O)(C(=O)CO)C[C@@H]3O[C@H]1C[C@H](NC(=O)CCCN2C(=O)CC(*)C2=O)[C@H](O)[C@H](C)O1; ξC = NC(CS)C(=O)O

Key:
[1] = system: MES-SA/Dx5; experiment: Cytotoxicity against MES-SA/dx5 cell line by WST1 assay; type: functional, cell-based; settings: Homo sapiens
[2] = system: HCT-15; experiment: Cytotoxicity against HCT15 cell line by WST1 assay; type: functional, cell-based; settings: Homo sapiens
[3] = system: HCT-15; experiment: Cytotoxicity against doxorubicin-resistant HCT15 cell line in presence of verapamil by WST1 assay; type: functional, cell-based; settings: Homo sapiens
[4] = system: MES-SA/Dx5; experiment: Cytotoxicity against doxorubicin-resistant MES-SA/dx5 cell line in presence of verapamil by WST1 assay; type: functional, cell-based; settings: Homo sapiens
[5] = system: HCT-116; experiment: Cytotoxicity against doxorubicin-sensitive HCT116 cell line in presence of verapamil by WST1 assay; type: functional, cell-based; settings: Homo sapiens
[6] = system: NCI/ADR-RES; experiment: Cytotoxicity against doxorubicin-resistant MCF7/Adr cell line by WST1 assay; type: functional, cell-based; settings: Homo sapiens
[7] = system: NCI/ADR-RES; experiment: Cytotoxicity against doxorubicin-resistant MCF7/Adr cell line in presence of verapamil by WST1 assay; type: functional, cell-based; settings: Homo sapiens
[8] = system: MCF7; experiment: Cytotoxicity against doxorubicin-sensitive MCF7/6 cell line by WST1 assay; type: functional, cell-based; settings: Homo sapiens
[9] = system: HCT-116; experiment: Cytotoxicity against doxorubicin-sensitive HCT116 cell line by WST1 assay; type: functional, cell-based; settings: Homo sapiens
[10] = system: MDA-MB-231; experiment: Cytotoxicity against MDA-MB-231 cell line xenografted in NMRI nu/nu mouse at 10 umol/kg relative to control; type: functional, Homo sapiens
[11] = system: HCT-116; experiment: Cytotoxicity against HCT116 cell line xenografted in NMRI nu/nu mouse at 15 umol/kg relative to control; type: functional, Homo sapiens
[12] = system: MDA-MB-231; experiment: Cytotoxicity against MDA-MB-231 cell line xenografted in NMRI nu/nu mouse at 6 umol/kg relative to control; type: functional, Homo sapiens
[13] = system: MDA-MB-231; experiment: Cytotoxicity against MDA-MB-231 cell line xenografted in NMRI nu/nu mouse at 8 umol/kg relative to control; type: functional, Homo sapiens

| Structure (SMILES) | IC50 [6] [µM] | IC50 [8] [µM] | IC50 [9] [µM] | Activity [11] [%] | other results |
| --- | --- | --- | --- | --- | --- |
| COc1cccc2c1C(=O)c1c(O)c3c(c(O)c1C2=O)C[C@@](O)(C(=O)COC(=O)CCCN1C(=O)CC(SC[C@H](N)C(=O)N[C@H](C(=O)N[C@@H](CCCCN)C(=O)N[C@@H](CCCN=C(N)N)C(=O)NCC(=O)N[C@@H](CC(C)C)C(=O)N[C@@H](CCCCN)C(=O)N[C@@H](CC(C)C)C(=O)N[C@@H](CCCN=C(N)N)C(=O)N[C@@H](Cc2c[nH]cn2)C(=O)N[C@H](C(=O)N[C@@H](CCCN=C(N)N)C(=O)N2CCC[C@H]2C(=O)N[C@@H](CCCN=C(N)N)C(=O)N[C@H](C(=O)N[C@H](C(=O)N[C@@H](CCCN=C(N)N)C(=O)N[C@@H](CCSC)C(=O)N[C@@H](CC(=O)O)C(=O)N[C@H](C(=O)O)C(C)C)[C@@H](C)O)C(C)C)C(C)C)C(C)C)C1=O)C[C@@H]3O[C@H]1C[C@H](N)[C@H](O)[C@H](C)O1 (stereo not given in full) (H-C(X1)VKRGLKLRHVRPRVTRMDV-OH) | 133 | 29 | 6 | – | IC50 [1]: 81 µM; IC50 [2]: 50 µM; IC50 [3]: 11 µM; IC50 [4]: 22 µM; IC50 [5]: 4 µM; IC50 [7]: 52 µM |
| COc1cccc2c1C(=O)c1c(O)c3c(c(O)c1C2=O)C[C@@](O)(C(=O)COC(=O)CCCN1C(=O)CC(SC[C@H](N)C(=O)N[C@H](C(=O)N[C@@H](CCCCN)C(=O)N[C@@H](CCCN=C(N)N)C(=O)NCC(=O)N[C@@H](CC(C)C)C(=O)N[C@@H](CCCCN)C(=O)N[C@@H](CC(C)C)C(=O)N[C@@H](CCCN=C(N)N)C(=O)N[C@@H](Cc2c[nH]cn2)C(=O)N[C@H](C(=O)N[C@@H](CCCN=C(N)N)C(=O)N2CCC[C@H]2C(=O)N[C@@H](CCCN=C(N)N)C(=O)N[C@H](C(=O)N[C@H](C(=O)N[C@@H](CCCN=C(N)N)C(=O)N[C@@H](CCSC)C(=O)N[C@@H](CC(=O)O)C(=O)N[C@H](C(=O)O)C(C)C)[C@@H](C)O)C(C)C)C(C)C)C(C)C)C1=O)C[C@@H]3O[C@H]1C[C@H](N)[C@H](O)[C@H](C)O1.O=C(O)C(F)(F)F (stereo not given in full) (H-C(X1)VKRGLKLRHVRPRVTRMDV-OH) | – | – | – | 29.5 | Activity [10]: 16.4%; Activity [12]: 43.4%; Activity [13]: 27.6% |
| COc1cccc2c1C(=O)c1c(O)c3c(c(O)c1C2=O)C[C@@](O)(C(=O)CO)C[C@@H]3O[C@H]1C[C@H](NC(=O)CCCN2C(=O)CC(SC[C@H](N)C(=O)N[C@H](C(=O)N[C@@H](CCCCN)C(=O)N[C@@H](CCCN=C(N)N)C(=O)NCC(=O)N[C@@H](CC(C)C)C(=O)N[C@@H](CCCCN)C(=O)N[C@@H](CC(C)C)C(=O)N[C@@H](CCCN=C(N)N)C(=O)N[C@@H](Cc3c[nH]cn3)C(=O)N[C@H](C(=O)N[C@@H](CCCN=C(N)N)C(=O)N3CCC[C@H]3C(=O)N[C@@H](CCCN=C(N)N)C(=O)N[C@H](C(=O)N[C@H](C(=O)N[C@@H](CCCN=C(N)N)C(=O)N[C@@H](CCSC)C(=O)N[C@@H](CC(=O)O)C(=O)N[C@H](C(=O)O)C(C)C)[C@@H](C)O)C(C)C)C(C)C)C(C)C)C2=O)[C@H](O)[C@H](C)O1 (stereo not given in full) (H-C(X4)VKRGLKLRHVRPRVTRMDV-OH) | 500 | 108 | – | – | – |
| COc1cccc2c1C(=O)c1c(O)c3c(c(O)c1C2=O)C[C@@](O)(C(=O)CO)C[C@@H]3O[C@H]1C[C@H](NC(=O)CCCN2C(=O)CC(SC[C@H](N)C(=O)N[C@H](C(=O)N[C@@H](CCCCN)C(=O)N[C@@H](CCCN=C(N)N)C(=O)NCC(=O)N[C@@H](CC(C)C)C(=O)N[C@@H](CCCCN)C(=O)N[C@@H](CC(C)C)C(=O)N[C@@H](CCCN=C(N)N)C(=O)N[C@@H](Cc3c[nH]cn3)C(=O)N[C@H](C(=O)N[C@@H](CCCN=C(N)N)C(=O)N3CCC[C@H]3C(=O)N[C@@H](CCCN=C(N)N)C(=O)N[C@H](C(=O)N[C@H](C(=O)N[C@@H](CCCN=C(N)N)C(=O)N[C@@H](CCSC)C(=O)N[C@@H](CC(=O)O)C(=O)N[C@H](C(=O)O)C(C)C)[C@@H](C)O)C(C)C)C(C)C)C(C)C)C2=O)[C@H](O)[C@H](C)O1.O=C(O)C(F)(F)F (stereo not given in full) (H-C(X4)VKRGLKLRHVRPRVTRMDV-OH) | – | – | – | 79.7 | – |
| COc1cccc2c1C(=O)c1c(O)c3c(c(O)c1C2=O)C[C@@](O)(C(=O)COC(=O)CCCN1C(=O)CC(SCC(N)C(=O)NCC(=O)N[C@@H](CCCCN)C(=O)N[C@@H](CCCN=C(N)N)C(=O)N[C@@H](CCCCN)C(=O)N[C@@H](CCCCN)C(=O)N[C@@H](CCCCN)C(=O)NCC(=O)N[C@@H](CCCCN)C(=O)N[C@@H](CC(C)C)C(=O)NCC(=O)N[C@@H](CCCCN)C(=O)N[C@@H](CCCCN)C(=O)N[C@@H](CCCN=C(N)N)C(=O)N2CCC[C@H]2C(=O)N[C@@H](CCCN=C(N)N)C(=O)N[C@@H](CO)C(=O)N[C@@H](CCCN=C(N)N)C(=O)N[C@@H](CS)C(=O)O)C1=O)C[C@@H]3O[C@H]1C[C@H](N)[C@H](O)[C@H](C)O1.O=C(O)C(F)(F)F (stereo not given in full) (H-[ξC](X1)GKRKKKGKLGKKRPRSRC-OH) | > 1000 | 10 | 5 | 34.1 | – |
